“Also recorded” adds a separate entry of the source. {FAM} = fluorescein (FAM) fluorophore label; {BHQ1} = Black Hole Quencher 1
Experiments:
Type in all cases: binding
[1] = system: Bgal_WT_tar oligo target; experiment: Affinity of stemless probes to single stranded oligo target (melt 25-90° C.); settings: for Signal (25° C.): fluorescence at 25° C., hybridised to oligo target; for Signal (25° C.) / Signal (90° C.): 280 mM NaCl, 20 mM Na2HPO4 buffer; for Signal (90° C.): fluorescence at 90° C.
Description: This example illustrates how stemless beacons comprising hydrophobic modifications of the structure: X—Y-Q where X is a backbone monomer unit linked to the oligo by phosphordiester bonds and of the structure —O—CH2—CH2—O—, Y is a —CH2—O—CH2— linker and Q is 1′-pyrene, will have higher affinity towards a fully complementary target sequence than a probe not comprising said hydrophobic modifications.
It can be seen from FIG. 13 that all stemless beacons have the similar or higher affinity for the complementary oligo nucleotide target compared to the corresponding DNA. Furthermore it can be calculated that all of the stemless beacons presented in this example (exclusive probe—1) have a similar or higher signal-to-noise ratio than the DNA probe without hydrophobic modifications (signal at 25 degrees divided by signal at 90 degrees).

[2] = system: mismatched DNA target; experiment: Melting temperature experiment (dissociation curve) of probe hybridised to mismatched DNA target; settings: for temperature at which the probe hybridises to its mismatched target: FIG. 3, negative derivative of dissociation curve, 4 mM MgCl2, 50 mM KCl, 10 mM TRIS-HCl, pH=8.0
Protocol: (§1) The measurement was done as a melting temperature experiment on a Mx3000, Stratagene Real-time PCR instrument in a 96-well plate. The measurements were done in a buffer solution reflecting the buffer solutions used in a normal Real-time PCR reaction. The buffer contained 4 mM MgCl2, 50 mM KCl, 10 mM TRIS-HCl, pH=8.0. 1 μL of the Stemless Beacon (5 pmol/μL) and 2 μL of the DNA target sequence (5 pmol/μL) and 22 μL of the buffer mentioned above. First the mixtures were heated to 95° C. for 1 min to denature the secondary structures followed by annealing of the duplexes at 35° C. and ramping up to 95° C. while measuring the signal for every degrees change. Results are shown in FIG. 2, and other details like the sequences of the Stemless Beacons can be seen in the legend to said Figure.
(§2) The Measurements were carried out as described in example 2 above. Result and sequence information can be found in FIG. 3 and in the legend to said figure. The results are shown as the first derivative of the signal against temperature.

[3] = system: matched DNA target; experiment: Melting temperature experiment (dissociation curve) of probe hybridised to matched DNA target; settings: for difference between hybridisation temperature to matched and mismatched target: FIG. 3, matched versus mismatched target; for temperature at which the probe hybridises to its matched target: FIG. 3, negative derivative of dissociation curve, 4 mM MgCl2, 50 mM KCl, 10 mM TRIS-HCl, pH=8.0
Protocol: as §1, §2

[4] = system: nucleotide 2074 of human Andrenogen receptor, wild type (THP cDNA) and A→G mutant (LNCap cDNA); experiment: Real-time PCR SNP detection, fluorescence read at 55, 61 and 65° C.
Protocol: (§3) A test was setup to see if the used combination of probes would be able to distinguish between the wildtype and the A→G transition mutant. Measurements in this example were carried out on the Real-time PCR machine Rotorgene™ 3000 from Corbett Research.
(§4) In this experiment the mut. specific probe was added together with wt. specific probe in a homogenous assay. The label 1 means the inserted pseudonucleotide or hydrophobic nucleotide (Phosphoramidite of (S)-1-(4,4′-dimethoxytriphenylmethyloxy)-3-pyrenemethyloxy-2-propanol) comprising the hydrophobic, intercalating molecule pyrene (with the number XII from the description above). The label 2 means the inserted pseudonucleotide or hydrophobic nucleotide (Phosphoramidite of 3-(1-O-(4,4′-dimethoxytriphenylmethyl)-2-O-(2-cyanoethyl diisopropylamidophosphite)-1,2-butandiol)-4-N-(7,9-Dimethyl-3H-pyrido[3′,2′:4,5]thieno[3,2-d]pyrimidin-4-one)) (comprising the intercalating hydrophobic group with the number XXVI from the description above). FAM and Hex are fluorophores and BHQ1 is a quencher.
(§5) The template: 2 samples of each with cDNA extracted from either LNCap (mutant) and/or THP (wt) (6 samples overall).
(§6) The Real-Time PCR profile used is depicted in FIG. 14B.

[5] = system: nucleotide 2074 of human Andrenogen receptor, wild type (THP cDNA) and A→G mutant (LNCap cDNA); experiment: End-point affinity measurements on FAM and HEX channel, SNP detection
Protocol: as §3, §4, §5, §6

[6] = Example 2, FIG. 2, methylated/unmethylated bisulphite treated DNA target

## 5′-Fam ACC GA1 CCC AG1 CGC CC BHQ1-3′ [Probe _6]
[1]
  Signal (25° C.): 77.01
  Signal (90° C.): 12.85

## 5′-Fam A1C CGA CCC AGC GCC 1C BHQ1-3′ [Probe _2]
[1]
  Signal (25° C.): 34.12
  Signal (90° C.): 4.7

## 5′-Fam ACC GAC 1CC A1G CGC CC BHQ1-3′ [Probe _7]
[1]
  Signal (25° C.): 46.92
  Signal (90° C.): 7.98

## FAM-A2AAA2ATCCCG2CGA2ACT-BHQ1 (DNA ANAAANATCCCGNCGANACT; FAM, BHQ1, 4 hydrophobic pseudonucleotide insertions, chemistry not fully specified) [Stemless Beacon]
[2]; [6]
  melting temperature of the probe against the mismatched target: 56 °C
[3]; [6]
  melting temperature of the probe against the fully matched target: 67 °C
[3]; FIG. 2, 35 to 95° C.
  background fluorescence (fluorescence of unbound probe) compared to the Stemless DNA probe: significantly reduced background fluorescence; also recorded: much lower

## HEX-2TCAAA2AGCGA2ACTG2AT-BHQ1 (DNA NTCAAANAGCGANACTGNAT; pseudonucleotide insertions denoted 2, identity not given here, further chemistry not given here) [mut. specific probe, mutant specific probe; 2 = pseudonucleotide with hydrophobic group XXVI]
[4]; at 55° C.
  binding of probe in real-time PCR: hybridising specifically to its target
[4]; at 61° C.
  binding of probe in real-time PCR: worked fine
[4]; at 65° C.
  binding of probe in real-time PCR: no longer binding
[5]; HEX channel, at temperatures above 55° C.
  width of window distinguishing fully complementary from single nucleotide mismatched target: at least 10 °C

## FAM-T1CAAA1AGTGA1ACTG1AT-BHQ1 (DNA TNCAAANAGTGANACTGNAT; DNA probe with hydrophobic pseudonucleotide insertions denoted 1, structure not given here, further chemistry not given here) [wt specific probe, wild type specific probe; 1 = pyrene pseudonucleotide]
[4]; at 55° C.
  binding of probe in real-time PCR: binds to both the wild type target and the mutant
[4]; at 61° C.
  binding of probe in real-time PCR: only a specific signal from wt probe is obtained
[4]; at 65° C.
  binding of probe in real-time PCR: only binding to its specific target
[5]; FAM channel
  width of window of specific hybridisation: approximately 5 degree

## FAM-ATTTTAGGGCGTTTTTTTG-BHQ1 (DNA, 5' {FAM}, 3' {BHQ1}, backbone not given here) [reference compound]
[2]
  temperature at which the probe hybridises to its mismatched target: 57.1 °C
[3]
  difference between hybridisation temperature to matched and mismatched target: 7.8 °C
  temperature at which the probe hybridises to its matched target: 64.9 °C

## 5′-Fam ACC G1A CCC AGC 1GC CC BHQ1-3′ [Probe _5]
[1]
  Signal (25° C.): 50.57
  Signal (90° C.): 7.81

## 5′-Fam ACC GAC CCA GCG CCC BHQ1-3′ (DNA ACCGACCCAGCGCCC; reference probe without hydrophobic nucleotides, sugar not given here, further chemistry not given here) [Probe _ref (DNA), DNA probe without hydrophobic modifications, reference compound]
[1]
  Signal (25° C.): 38.11
  Signal (90° C.): 8.65
[1]; signal at 25 degrees divided by signal at 90 degrees
  Signal-to-noise: 4.41

## FAM-T2AGG2GCGT2TTTT2T-BHQ1 (DNA TNAGGNGCGTNTTTTNT; FAM, BHQ1, intercalating pseudonucleotide insertions, further chemistry not given here) [SB, 2 = inserted pseudonucleotide comprising intercalating hydrophobic group XXVI]
[2]
  temperature at which the probe hybridises to its mismatched target: 49.9 °C
[3]
  difference between hybridisation temperature to matched and mismatched target: 13.8 °C
  temperature at which the probe hybridises to its matched target: 63.7 °C
[3]; measured as difference in affinity to a matched versus a mismatched target
  specificity higher than Stemless DNA probe having the same affinity: 77%

Reference: patent US8133984B2, “Oligonucleotides comprising signalling pairs and hydrophobic nucleotides, stemless beacons, for detection of nucleic acids, methylation status and mutants of nucleic acids” (PENTABASE ApS, priority 2006, dated 2012)
